Experimental data from patent US20220371988A1, “TRPV1 AGONIST AND PREPARATION METHOD THEREFOR AND USE THEREOF” (NANJING DELOVA BIOTECH CO. LTD., priority 2019, published 2022).
In brackets after ≈: the same amount, converted by molar mass. Like-named read-outs stand apart in the source and are kept apart here.

Assays:
[1] = system: rats as models of pain after incision; experiment: Thermal hyperalgesia test (Hargreaves method) in rats as models of pain after incision; type: in vivo, SD rat
[2] = system: rats as models of pain after incision; experiment: Mechanical allodynia test (Von Frey method) in rats as models of pain after incision; type: in vivo, SD rat
[3] = parent drug, cited from earlier work
[4] = HD group: A-17 0.6 mg/animal, parent 0.36 mg/animal
[5] = LD group: A-17 0.15 mg/animal, parent 0.09 mg/animal

## (E)-2-methoxy-4-(8-methylnonanamide)phenyl 2-([[1,4′-bipiperidin]-1′-yl) propanoate hydrochloride [Compound A-16]
pH 4.5
  Release half-life t1/2: About 73 h
pH 7.4
  Release half-life t1/2: About 157 h

## COc1cc(CNC(=O)CCCC/C=C/C(C)C)ccc1O [trans-8-methyl-N-vanillyl-6-nonenamide]
[1]; HD group: A-17 0.6 mg/animal (P<0.001), parent 0.36 mg/animal (P<0.01)
  Effect on overall thermal hyperalgesia (AUC of time-TWL curve) within 7 days vs blank preparation: effective in relieving the overall thermal hyperalgesia
[1]; [4]
  Duration of analgesic effect on thermal hyperalgesia: 3 days
[1]; [5]
  Effect on overall thermal hyperalgesia (AUC of time-TWL curve) within 7 days vs blank preparation: no significant effect
[1]; LD group: A-17 0.15 mg/animal, parent 0.09 mg/animal, injection at incision site
  Time after surgery at which thermal withdrawal latency (TWL) was increased vs blank preparation group (P<0.05): 1 h
[2]; [4]
  Time after surgery at which paw withdrawal threshold (PWT) was increased vs blank preparation group (P<0.05): 4 h
[2]; [5]
  Time after surgery at which paw withdrawal threshold (PWT) was increased vs blank preparation group (P<0.05): no significant effect
[3]; at 25° C.
  Solubility in water: 8.41 µg/mL (≈ 27.5 µM)
[3]
  Log P: 3.8
